Test results published in patent US8680097B2, “Benzothiophene alkanol piperazine derivatives and their use as antidepressant” (CSPC Zhongqi Pharmaceutical Technology (Shijiazhuang) Co. …, priority 2008, dated 2014).
Like-named read-outs stand apart in the source and are kept apart here.

Experiments:
[1] = system: uptake of DA by brain synaptosomes; assay: [3H]DA reuptake by rat brain synaptosomes; format: biochemical; conditions: for inhibition activity on the reuptake of DA (in words): at the concentration of 10 μmol/L; for inhibition effect on the uptake of DA: rat corpus striatum synaptosomes, control drugs and tested substances all 0.1 mmol/L (method and b297 say 10 μmol/L), inhibition rate
[2] = system: uptake of 5-HT by brain synaptosomes; assay: [3H]5-HT reuptake by rat brain synaptosomes; format: biochemical; conditions: at the concentration of 10 μmol/L
[3] = system: uptake of NA by brain synaptosomes; assay: [3H]NA reuptake by rat brain synaptosomes; format: biochemical; conditions: at the concentration of 10 μmol/L
[4] = Forced Swimming Test in Learned Helplessness Experiment; format: in vivo
Excerpt: 2. Results of in vivo antidepression of compound VII-10

[5] = system: mice; assay: Acute toxicity, LD50 single-fed; format: in vivo; conditions: statistics of Bliss
Experimental: Initial screening was performed by the method reported in “Modern Pharmacological Experiments Mothods” edited by Zhang Juntian.

[6] = system: histidine auxotrophic mutant strains of Salmonella TA97, TA98, TA100 and TA102; format: cell-based
Excerpt: 4. Bacterial reverse mutation test for VII-10.
Bacterium: histidine auxotrophic mutant strains of Salmonella TA97, TA98, TA100 and TA102
Experimental method: the method reported in the literature: Maron D M et al: (1983) Mutay Res. 113, 173-216.
Results: The experiment included two parts: −S9 and +S9. […] The other dosages had no bacteriostatic effect for all the strains, with a well growing background. […] Ames test result was negative.

Compound	inhibition activity on the reuptake of DA (in words) [1]	inhibition effect on the uptake of DA [1]	inhibition activity on the reuptake of 5-HT (in words) [2]	inhibition activity on the reuptake of NA (in words) [3]	other results
Cl.OC(CCN1CCN(CCOC(c2ccc(F)cc2)c2ccc(F)cc2)CC1)c1csc2ccccc12 (stereo not drawn) [VII-15]	stronger inhibition activity	102.2 ± 1.3 ^	stronger inhibition activity	stronger inhibition activity	
CC(C(O)c1csc2ccccc12)N1CCN(Cc2ccccc2)CC1 (single isomer, unassigned) [VII-5, N^1-benzyl-N^4-[1-methyl-2-hydroxy-2-(benzo[b]thiophene-3-yl)]ethylpiperazine (erythro isomer)]		11.4 ± 11.5			
CC(c1ccccc1)N1CCN(CCC(O)c2csc3ccccc23)CC1.Cl (stereo not drawn) [VII-12, N^1-α-phenethyl-N^4-[3-hydroxy-3-(benzo[b]thiophene-3-yl)]propylpiperazine hydrochloride]	stronger inhibition activity	98.0 ± 1.5	stronger inhibition activity	stronger inhibition activity	
CC(C(O)c1csc2ccccc12)N1CCN(Cc2ccccc2)CC1 (single isomer, unassigned) [VII-4, N^1-benzyl-N^4-[1-methyl-2-hydroxy-2-(benzo[b]thiophene-3-yl)]ethylpiperazine (threo isomer)]		14.5 ± 10.0			
Cl.OC(CCN1CCN(CC=Cc2ccccc2)CC1)c1csc2ccccc12 (stereo not drawn) [VII-11, N^1-cinnamyl-N^4-[3-hydroxy-3-(benzo[b]thiophene-3-yl)]propylpiperazine hydrochloride]	stronger inhibition activity	97.9 ± 1.1	stronger inhibition activity	stronger inhibition activity	
COc1ccc(C(CN(C)C)C2(O)CCCCC2)cc1 (stereo not drawn) [Venlafaxine, reference compound]		48.6 ± 4.1 ^			immobility time ([4]; dosage 4.56 mg/kg): 57.1 ± 37.8 s; immobility time ([4]; dosage 9.12 mg/kg): 77.4 ± 47.2 s; immobility time ([4]; dosage 18.24 mg/kg): 80.8 ± 46.8 s
Cl.OC(CCN1CCN(Cc2ccccc2)CC1)c1csc2ccccc12 (stereo not drawn) [VII-10, N^1-benzyl-N^4-[3-hydroxy-3-(benzo[b]thiophene-3-yl)]propylpiperazine hydrochloride]	stronger inhibition activity	78.0 ± 8.0	stronger inhibition activity	stronger inhibition activity	effect on immobility time in swimming (in words) [4]: significantly reduce the immobility time; immobility time ([4]; dosage 6.35 mg/kg): 90.7 ± 46.3 s; immobility time ([4]; dosage 12.7 mg/kg): 87.5 ± 35.7 s; immobility time ([4]; dosage 25.4 mg/kg, hydrochloride): 84 ± 48.9 s; LD50 [5]: 1100 mg/kg; Ames test result ([6]; TA97, TA98, TA100, TA102, −S9 and +S9): negative; dose showing bacteriostatic effect ([6]; TA97 in +S9 test system): 5000 μg per culture dish; dose showing bacteriostatic effect ([6]; TA98 in −S9 test system): 5000 μg per culture dish; number of reverse mutation colonies ([6]; all dosages tested, both −S9 and +S9 test systems): no significant increase
Clc1ccc([C@]23CNC[C@H]2C3)cc1Cl [DOV 21947, reference compound]		104.1 ± 4.2 ^			
Cl.OC(CCN1CCN(C(c2ccccc2)c2ccccc2)CC1)c1csc2ccccc12 (stereo not drawn) [VII-14, N^1-benzhydryl-N^4-[3-hydroxy-3-(benzo[b]thiophene-3-yl)]propylpiperazine hydrochloride]	stronger inhibition activity	87.3 ± 4.3	stronger inhibition activity	stronger inhibition activity	
